Read-outs that look alike come from different tables or passages of the source.
Assay: Bioavailability assay in rats, Experiment I (dihydrochloride)
Assay type: in vivo
Settings: Wistar rats; for half-life: read-out: T½ elimination half-life (converted)
Procedure: Experiment I. Bioavailability Assay for N-[4-(3-chloro-4-fluorophenylamino)-7-(2-methoxyethoxy)quinazolin-6-yl]-2-[1-(2-methoxyethyl)piperidin-4-ylidene]acetamide Dihydrochloride in Rats
12 Wistar rats (male, weighing 200-220 g) were purchased from Beijing Vital River Laboratory Animal Technology Co., Ltd. License No.: SCXK (Beijing) 2007-0001.
2.1 30 mg of N-[4-(3-chloro-4-fluorophenylamino)-7-(2-methoxyethoxy)quinazolin-6-yl]-2-[1-(2-methoxyethyl)piperidin-4-ylidene]acetamide dihydrochloride was weighted, and 6 ml of ultrapure water was added thereto to prepare a sample solution (5 mg/ml)) for use in intravenous administration.
2.2 30 mg of N-[4-(3-chloro-4-fluorophenylamino)-7-(2-methoxyethoxy)quinazolin-6yl]-2-[1-(2-methoxyethyl)piperidin-4-ylidene]acetamide dihydrochloride was weighted, and 12 ml of ultrapure water was added thereto to prepare a sample solution (2.5 mg/ml)) for use in intragastric administration.
4.1.1 HPLC Conditions: chromatographic column: octadecyl-bonded silica gel as filler (4.6 mm×50 mm, 1.8 μm), Agilent; mobile phase: methanol: 5 mM ammonium acetate (PH4.0) (60: 40); flow rate: 1 ml/min; column temperature: 40° C.
Ion: 544.3→457.1 (N-[4-(3-chloro-4-fluorophenylamino)-7-(2-methoxyethoxy)quinazolin-6-yl]-2-[1-(2-methoxyethyl)piperidin-4-ylidene]acetamide dihydrochloride)
Dwell Time: 80; fragment voltage: 180; collision energy: 25;
1 mg of N-[4-(3-chloro-4-fluorophenylamino)-7-(2-methoxyethoxy)quinazolin-6-yl]-2-[1-(2-methoxyethyl)piperidin-4-ylidene]acetamide dihydrochloride was weighted and formulated into a solution in methanol (1 mg/ml)). The solution was then diluted stepwise into standard solutions of 50 ng/ml, 100 ng/ml, 200 ng/ml, 500 ng/ml, 1 μg/ml, 2 μg/ml, 5 μg/ml, 10 μg/ml, 20 μg/ml, 50 μg/ml, and 100 μg/ml. 10 μl of the standard solutions were separately pipetted into centrifuge tubes (1.5 ml). 10 μl of internal standard (1 μg/ml Lipitor solution in methanol) was added thereto. 100 μl of rat plasma was then added thereto. The mixture was vortexed. Then 200 μl of acetonitrile was added to precipitate protein, then vortexed for 1 min and centrifuged at 16000 r/min for 8 min 10 μl of the supernatant was directly injected for measurement.
12 rats were randomly divided into two groups, i.e. six rats per group. These rats were fasted and ad libitum accessed to water for 12 hours before administration. Blank blood (about 0.5 ml) of each rat was withdrawn, and then N-[4-(3-chloro-4-fluorophenylamino)-7-(2-methoxyethoxy)quinazolin-6-yl]-2-[1-(2-methoxyethyl)piperidin-4-ylidene]acetamide dihydrochloride (20 mg/kg) was administrated via intragastric gavage and tail intravenous injection, respectively. Blood (about 0.5 ml) was withdrawn from the orbital venous plexus at different time points after the administration (blood collection points for tail intravenous administration were: 5 min, 15 min, 0.5 h, 1 h, 2 h, 3 h, 4 h, 6 h, 8 h, 12 h, 18 h, 24 h, 30 h; and blood collection time-points for intragastric administration were: 5 min, 10 min, 20 min, 30 min, 45 min, 1 h, 2 h, 3 h, 4 h, 6 h, 8 h, 12 h, 18 h, 24 h, 30 h). The blood was drawn into a heparinized centrifuge tube and centrifuged at 8000 r/min for 10 min 100 μl of the plasma was pipetted into a centrifuge tube (1.5 ml), and 10 μl of internal standard (1 μg/ml atorvastatin hemi-calcium salt solution in methanol) was added thereto. The resulting mixture was vortexed. Then 200 μl of acetonitrile was added to precipitate protein, vortexed for 1 min and centrifuged at 16000 r/min for 8 min The supernatant was recovered, and 10 μl of the supernatant was directly injected for detection.
5.1 A standard curve with the natural logarithm of the sample concentration as abscissa and the natural logarithm of the peak area ratio of the sample to the internal standard as ordinate was established as: y=1.008x−4.149; R2=0.998
Method for the calculation of bioavailability: F=(AUCig×Div)/(AUCiv×Dig)×100% […]

[1] = male, rat, plasma, oral, 20 mg/kg ig, read-out: Average Plasma Drug Concentration
[2] = male, rat, plasma, po, 20 mg/kg ig
[3] = male, rat, plasma, 20 mg/kg iv, read-out: Average Plasma Drug Concentration

COCCOc1cc2ncnc(Nc3ccc(F)c(Cl)c3)c2cc1NC(=O)C=C1CCN(CCOC)CC1.Cl.Cl [Compound 2, N-[4-(3-chloro-4-fluorophenylamino)-7-(2-methoxyethoxy)quinazolin-6yl]-2-[1-(2-methoxyethyl)piperidin-4-ylidene]acetamide dihydrochloride]
K (elimination rate constant) (20 mg/kg iv): 0.14
bioavailability (male, rat, plasma, oral, 20 mg/kg ig vs 20 mg/kg iv): 56.9%
concentration at 0.167 h (male, rat, plasma, oral, 20 mg/kg ig, 0.167 h, read-out: Average Plasma Drug Concentration): 0.0394 µg/mL
concentration at 0.33 h (male, rat, plasma, oral, 20 mg/kg ig, 0.33 h, read-out: Average Plasma Drug Concentration): 0.145 µg/mL
concentration at 0.5 h [1]: 0.202 µg/mL
concentration at 0.75 h (male, rat, plasma, oral, 20 mg/kg ig, 0.75 h, read-out: Average Plasma Drug Concentration): 0.285 µg/mL
concentration at 1 h [1]: 0.342 µg/mL
concentration at 2 h [1]: 0.342 µg/mL
concentration at 3 h [1]: 0.406 µg/mL
concentration at 4 h [1]: 0.468 µg/mL
concentration at 6 h [1]: 0.536 µg/mL
concentration at 8 h [1]: 0.495 µg/mL
concentration at 12 h [1]: 0.33 µg/mL
concentration at 18 h [1]: 0.139 µg/mL
concentration at 24 h [1]: 0.0724 µg/mL
concentration at 30 h [1]: 0.0227 µg/mL
concentration at 0.083 h (male, rat, plasma, oral, 20 mg/kg intragastric gavage (ig), read-out: Average Plasma Drug Concentration): 0.0171 µg/mL
AUC [2]: 7.35 µg·h/mL
half-life [2]: 4.73 h
AUC (male, rat, plasma, 20 mg/kg iv): 12.9 µg·h/mL
concentration at 0.25 h (male, rat, plasma, 20 mg/kg iv, 0.25 h, read-out: Average Plasma Drug Concentration): 3.24 µg/mL
concentration at 0.5 h [3]: 2.7 µg/mL
concentration at 1 h [3]: 1.72 µg/mL
concentration at 2 h [3]: 1.33 µg/mL
concentration at 3 h [3]: 0.989 µg/mL
concentration at 4 h [3]: 0.748 µg/mL
concentration at 6 h [3]: 0.557 µg/mL
concentration at 8 h [3]: 0.547 µg/mL
concentration at 12 h [3]: 0.325 µg/mL
concentration at 18 h [3]: 0.181 µg/mL
concentration at 24 h [3]: 0.0808 µg/mL
concentration at 30 h [3]: 0.0296 µg/mL
half-life (male, rat, plasma, 20 mg/kg iv): 5.18 h
concentration at 0.083 h (male, rat, plasma, 20 mg/kg tail intravenous injection (iv), read-out: Average Plasma Drug Concentration): 4.85 µg/mL
